# pEC50: −log10 of the molar value.
# Columns and labels:
# [1] = tested on: mice made neutropenic with CY; test: Comparison of compound AA with rhG-CSF in the CY neutropenia model; type: in vivo; conditions: compound AA at 40mg/kg daily, granulocyte levels in peripheral blood on day 5
# Procedure: Exogeneous G-CSF administration is now standard therapy for patients undergoing a neutropenic episode In order to compare compound AA treatment with G-CSF therapy in the CY model described above, we administered either compound AA or recombinant human G-CSF daily to mice made neutropenic with CY. Granulocyte levels in peripheral blood were determined on day 5.
# human G-CSF production = test: In vitro enhancement of G-CSF production in PHA-stimulated PBMNC's (ELISA of culture supernatant); type: cell-based; conditions: PBMNC's with 5µg/ml PHA
# Procedure: (§1) In order to determine the effect of compound AA on human G-CSF production, human peripheral blood mononuclear cells (PBMNC's) were prepared (as described in Ficoll-Paque: For in vitro isolation of lymphocytes (booklet) 1983 Pharmacia, Uppsala Sweden; which is hereby incorporated by reference) and cultured as described (in Oster et al, 1989 Blood 73:64. which is hereby incorporated by reference) with 5µg/ml phytohemagglutin (PHA) in the presence of varying concentrations of compound AA or vehicle (0.1% dimethylsulfoxide, DMSO). After 40 hours, culture supernatant was collected and cytokine levels measured by ELISA (R&D Systems, Minneapolis MN). Alternatively mRNA was prepared by standard protocols from these cells after 24 hour incubation, reverse-transcribed and subjected to polymerase chain reaction (PCR)
# [2] = tested on: bone marrow steady-state G-CSF mRNA; test: Endogenous G-CSF in CY-dosed mice: bone marrow steady-state G-CSF mRNA by PCR; type: in vivo; conditions: CY-dosed mice administered compound AA
# Procedure: Acceleration of neutrophil recovery by compound AA may occur by stimulating neutrophil development at the level of the bone marrow (see Demetri et al 1991 Blood 78: 2791).To confirm that compound AA was acting in vivo by enhancing endogenous G-CSF production, bone marrow steady-state G-CSF mRNA levels were determined by PCR.
# [3] = tested on: TNFα, TNFβ, IL-1α, IL-1 β, IL-3, IL-6, IL-8, or GM-CSF; test: Specificity: production of other cytokines in the PBMNC culture (ELISA); type: cell-based, human; conditions: PHA-stimulated PBMNC's
# Procedure: as §1
# This effect was specific for G-CSF, since no change in the production of TNFα, TNFβ, IL-1α, IL-1 β, IL-3, IL-6, IL-8, or GM-CSF was observed.
# G-CSF mRNA = test: Steady-state G-CSF mRNA levels in stimulated cell cultures (reverse transcription, PCR); type: cell-based, human
# BALB/cJ mice = test: In vivo acceleration of recovery from neutropenia in cyclophosphamide-treated mice (flow cytometry of granulocytes); conditions: for granulocyte recovery: return to normal numbers: 40 mg/kg daily from day 1 after single sublethal dose of CY on day 0
# Procedure: To test the activity of compound AA in enhancing peripheral neutrophil numbers and accelerating recovery of the neutrophil compartment, BALB/cJ mice were rendered neutropenic by treatment with a single sublethal dose of CY on day 0. Mice were then treated daily, starting on day 1, with 40 mg/kg compound AA or vehicle (carboxymethyl cellulose CMC) and sacrificed on days 3, 5, 6, 8 or 10 and granulocyte populations in peripheral blood and spleen analyzed by flow cytometry. Granulocytes were detected using the RB6-8C5 antibody, specific for granulocytes (see Hestdal et al 1991 J. Immunol. 147:22. which is hereby incorporated by reference) and the Mac-1 antibody, specific for myeloid cells (see Springer et al JEur. J. lmmunol. 9: 301). […] Compound AA administration accelerated granulocyte recovery in both blood and spleen, with a return to normal numbers by day 5 in blood and day 4 in spleen. These granulocytes were confirmed to be exclusively segmented neutrophils by cytological examination. Neutrophil recovery was delayed by 1-2 days in CY-dosed mice given vehicle, compared to compound AA - treated animals. No changes in percentage or number of monocytes were observed.
# [4] = 40 mg/kg daily, CY-treated mice
structure (smiles),measurement,setting,value
CC(=O)Nc1ccc(S(=O)(=O)Nc2nc(-c3ncccc3C)cc3cccnc23)cc1 [compound AA],ability to enhance peripheral blood neutrophil numbers versus 250mg/kg rhG-CSF,[1],comparable
same,ability to enhance peripheral blood neutrophil numbers versus 50-125mg/kg rhG-CSF,[1],greater
same,pEC50,"human G-CSF production; Homo sapiens, G-CSF levels, 40 hours, read-out: effective concentration50 (EC50)",4.82
same,increase in G-CSF levels,"human G-CSF production; supernatant after 40 hours, ELISA",4-5 fold
same,bone marrow G-CSF mRNA levels,[2],enhanced
same,"change in the production of TNFα, TNFβ, IL-1α, IL-1 β, IL-3, IL-6, IL-8, or GM-CSF",[3],no change
same,Steady-state G-CSF mRNA levels,G-CSF mRNA; LPS-stimulated monocytes,increased
same,Steady-state G-CSF mRNA levels,G-CSF mRNA; PHA-stimulated PBMNC's,increased
same,"delay of neutrophil recovery in CY-dosed mice given vehicle, compared to compound AA-treated animals",BALB/cJ mice; 40 mg/kg daily,1 to 2 days
same,changes in percentage or number of monocytes,BALB/cJ mice; [4],No changes
same,gross toxicity or abnormalities,BALB/cJ mice; [4],No evidence of gross toxicity or abnormalities
same,granulocyte recovery: return to normal numbers,BALB/cJ mice; blood,≤ 5 days
same,granulocyte recovery: return to normal numbers,BALB/cJ mice; spleen,≤ 4 days

# From EP0912571B1, “NAPHTHYRIDINES WHICH AFFECT IL-4 AND G-CSF” (SCHERING CORPORATION, priority 1996, dated 1997)
